Assay: compressibility factor (dimensionless); xn = mol fraction of the nth substance listed
Conditions: Gas, Burnett expansion method

CF [fluoromethane] + O=C=O
Conditions	compressibility factor
323.15 K, 1023.9 kPa, x2 = 0.619	0.9523
323.15 K, 1109.6 kPa, x2 = 0.189	0.9349
323.15 K, 1394.9 kPa, x2 = 0.378	0.9259
323.15 K, 1451.1 kPa, x2 = 0.791	0.9369
323.15 K, 1495.6 kPa, x2 = 0.619	0.9293
323.15 K, 1606.1 kPa, x2 = 0.189	0.904
323.15 K, 2009.1 kPa, x2 = 0.378	0.8909
323.15 K, 2102.7 kPa, x2 = 0.791	0.907
323.15 K, 2158.3 kPa, x2 = 0.619	0.8959
323.15 K, 2286.6 kPa, x2 = 0.189	0.8598
323.15 K, 2838.8 kPa, x2 = 0.378	0.8409
323.15 K, 2997.8 kPa, x2 = 0.791	0.8639
323.15 K, 3058.6 kPa, x2 = 0.619	0.8482
323.15 K, 3176.6 kPa, x2 = 0.189	0.798
323.15 K, 3899.6 kPa, x2 = 0.378	0.7717
323.15 K, 4170 kPa, x2 = 0.791	0.8027
323.15 K, 4217.2 kPa, x2 = 0.619	0.7813
323.15 K, 4257.2 kPa, x2 = 0.189	0.7144
323.15 K, 5138.4 kPa, x2 = 0.378	0.6793
323.15 K, 5587.6 kPa, x2 = 0.619	0.6915
323.15 K, 5596 kPa, x2 = 0.791	0.7197
333.15 K, 120.3 kPa, x2 = 0.392	0.9924
333.15 K, 128.5 kPa, x2 = 0.793	0.9965
333.15 K, 130.5 kPa, x2 = 0.572	0.9947
333.15 K, 141.4 kPa, x2 = 0.219	0.9909
333.15 K, 179.8 kPa, x2 = 0.392	0.9911
333.15 K, 191.9 kPa, x2 = 0.793	0.9938
333.15 K, 194.8 kPa, x2 = 0.572	0.9922
333.15 K, 211.2 kPa, x2 = 0.219	0.9886
333.15 K, 268.3 kPa, x2 = 0.392	0.9879
333.15 K, 286.2 kPa, x2 = 0.793	0.9901
333.15 K, 290.4 kPa, x2 = 0.572	0.9884
333.15 K, 314.8 kPa, x2 = 0.219	0.9843
333.15 K, 399.3 kPa, x2 = 0.392	0.9824
333.15 K, 426 kPa, x2 = 0.793	0.9846
333.15 K, 432.2 kPa, x2 = 0.572	0.9824
333.15 K, 467.7 kPa, x2 = 0.219	0.977
333.15 K, 592.5 kPa, x2 = 0.392	0.9737
333.15 K, 632.5 kPa, x2 = 0.793	0.9765
333.15 K, 641.1 kPa, x2 = 0.572	0.9736
333.15 K, 692.1 kPa, x2 = 0.219	0.9657
333.15 K, 874.8 kPa, x2 = 0.392	0.9605
333.15 K, 935.3 kPa, x2 = 0.793	0.9647
333.15 K, 946.8 kPa, x2 = 0.572	0.9606
333.15 K, 1017.9 kPa, x2 = 0.219	0.9489
333.15 K, 1282.7 kPa, x2 = 0.392	0.9408
333.15 K, 1375.1 kPa, x2 = 0.793	0.9475
333.15 K, 1389.2 kPa, x2 = 0.572	0.9416
333.15 K, 1484.9 kPa, x2 = 0.219	0.9247
333.15 K, 1863.4 kPa, x2 = 0.392	0.913
333.15 K, 2004.2 kPa, x2 = 0.793	0.9226
333.15 K, 2018.3 kPa, x2 = 0.572	0.9138
333.15 K, 2137.2 kPa, x2 = 0.219	0.8891
333.15 K, 2666.7 kPa, x2 = 0.392	0.8729
333.15 K, 2882 kPa, x2 = 0.793	0.8863
333.15 K, 2888.7 kPa, x2 = 0.572	0.8738
333.15 K, 3016.4 kPa, x2 = 0.219	0.8383
333.15 K, 3728.6 kPa, x2 = 0.392	0.8154
333.15 K, 4045.3 kPa, x2 = 0.572	0.8174
333.15 K, 4063.7 kPa, x2 = 0.793	0.8348
333.15 K, 4136 kPa, x2 = 0.219	0.7679
333.15 K, 5046.6 kPa, x2 = 0.392	0.7372
333.15 K, 5488.2 kPa, x2 = 0.572	0.7409
333.15 K, 5565.8 kPa, x2 = 0.793	0.7639
343.15 K, 125.5 kPa, x2 = 0.402	0.9971
343.15 K, 125.6 kPa, x2 = 0.787	0.996
343.15 K, 128.3 kPa, x2 = 0.591	0.9967
343.15 K, 135.4 kPa, x2 = 0.18	0.9953
343.15 K, 187.3 kPa, x2 = 0.402	0.9939
343.15 K, 187.7 kPa, x2 = 0.787	0.9941
343.15 K, 191.6 kPa, x2 = 0.591	0.9938
343.15 K, 202 kPa, x2 = 0.18	0.9914
343.15 K, 279.1 kPa, x2 = 0.402	0.9895
343.15 K, 280.1 kPa, x2 = 0.787	0.9911
343.15 K, 285.7 kPa, x2 = 0.591	0.9901
343.15 K, 300.8 kPa, x2 = 0.18	0.9865
343.15 K, 415.1 kPa, x2 = 0.402	0.9834
343.15 K, 417.3 kPa, x2 = 0.787	0.9864
343.15 K, 425.2 kPa, x2 = 0.591	0.9845
343.15 K, 447 kPa, x2 = 0.18	0.9794
343.15 K, 615.9 kPa, x2 = 0.402	0.9747
343.15 K, 620.2 kPa, x2 = 0.787	0.9794
343.15 K, 631.2 kPa, x2 = 0.591	0.9764
343.15 K, 662 kPa, x2 = 0.18	0.969
343.15 K, 910 kPa, x2 = 0.402	0.962
343.15 K, 918.6 kPa, x2 = 0.787	0.9691
343.15 K, 933.5 kPa, x2 = 0.591	0.9646
343.15 K, 975.3 kPa, x2 = 0.18	0.9536
343.15 K, 1336.1 kPa, x2 = 0.402	0.9436
343.15 K, 1353.5 kPa, x2 = 0.787	0.9539
343.15 K, 1372.4 kPa, x2 = 0.591	0.9474
343.15 K, 1426.1 kPa, x2 = 0.18	0.9315
343.15 K, 1943.4 kPa, x2 = 0.402	0.9169
343.15 K, 1979.2 kPa, x2 = 0.787	0.9318
343.15 K, 1999.6 kPa, x2 = 0.591	0.9222
343.15 K, 2061.5 kPa, x2 = 0.18	0.8996
343.15 K, 2787.5 kPa, x2 = 0.402	0.8786
343.15 K, 2861 kPa, x2 = 0.787	0.8998
343.15 K, 2876.3 kPa, x2 = 0.591	0.8861
343.15 K, 2930.2 kPa, x2 = 0.18	0.8542
343.15 K, 3914.8 kPa, x2 = 0.402	0.8243
343.15 K, 4057.2 kPa, x2 = 0.591	0.835
343.15 K, 4064.7 kPa, x2 = 0.18	0.7916
343.15 K, 4064.8 kPa, x2 = 0.787	0.8541
343.15 K, 5337.5 kPa, x2 = 0.402	0.7508
343.15 K, 5565.1 kPa, x2 = 0.591	0.7652
343.15 K, 5631.7 kPa, x2 = 0.787	0.7905

— the NIST ThermoML archive (doi:10.1021/je025630q)
